Data taken from patent US6914045B2, “Glycopeptide antibiotics” (Wyeth Holdings Corporation, priority 2001, dated 2005).
Values joined by “and” are separate entries in the source; they are usually repeats but may differ in a detail not shown here. Identical values can stand only once.

Legend:
[1] = test system: Staphylococcus aureus-SMITH (GC 4543); experiment: acute lethal infection in mice; assay type: in vivo; conditions: acute lethal infection, female CD-1 mice, intraperitoneal challenge, intravenous 30 min. after infection, 7 day survival
How it was run: (§1)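 ED50 from 7 day survival ratios pooled over 3 separate tests. Female CD-1 mice, 20+/−2 gm, ip bacterial challenge (trypticase soy broth or hog gastric mucin) lethal to untreated controls in 24-48 hr; iv dosing 30 min after infection in saline or 5% dextrose, n=5/dose.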

[2] = test system: Enterococcus faecalis (GC 6189); experiment: acute lethal infection in mice; assay type: in vivo; conditions: female CD-1 mice, intraperitoneal challenge, intravenous 30 min. after infection, 7 day survival
How it was run: as §1

Streptococcus sp. = experiment: in vitro antibacterial evaluation, MIC by broth dilution; assay type: cell-based; conditions: broth dilution, 18 hours at 35° C.
How it was run: (§2)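 Step 1: dilute antibiotic across 64-0.06 μg/mL in Muller-Hinton II […]. Step 2: inoculate at 5×10^5 CFU/mL.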

Enterococcus sp. = experiment: as above; assay type: cell-based; conditions: broth dilution, 18 hours at 35° C.
How it was run: as §2

Escherichia coli = experiment: as above; assay type: cell-based; conditions: 18 hours at 35° C.
How it was run: as §2

Staphylococcus sp. = experiment: as above; assay type: cell-based; conditions: broth dilution, 18 hours at 35° C.
How it was run: as §2

Staphylococcus aureus = experiment: zone of inhibition, agar well assay plate; assay type: cell-based; conditions: 25 μl of extract per 5 mm well, incubated overnight at 37° C.
Description: Protocol for Assay Plate Staphylococcus aureus
Inoculate 10 mL of Tryptic Soy Broth with a loopful of slant culture, Staphylococcus aureus, and place in a stationary rack at 37° C. After 16-18 hour incubation, the Optical Density (OD) of the culture is read@A600 nm, using a 1:10 dilution. OD should be between 0.1-0.3, and if not adjust with Tryptic Soy Broth. A 40 mL sample of Nutrient Agar, pH 6.8 is inoculated with 90 ul of S. aureus culture and poured into a sterile petri dish. When the agar has solidified, wells (5 mm) are plated using an automated welling device. Wells are inoculated with 25 μl of extract and incubated overnight at 37° C. Zones of inhibition are measured and recorded the following morning.

Cc1cccc(C2OCC3OC(OC4C(CO)OC(Oc5ccc(CC6NC(=O)C(C(C)c7ccccc7)NC(=O)CNC(=O)C(CO)NC(=O)C(C(O)C7CNC(=N)N7C7OC(CO)C(O)C(O)C7O)NC(=O)C(C(O)C7CNC(=N)N7)NC6=O)cc5)C(O)C4O)C(O)C(O)C3O2)c1 (stereo not drawn) [Example 135, Cyclo[glycyl-β-methylphenylalanyl-O-[4-O-[4,6-O-(3-methylbenzylidene)hexopyranosyl]-hexopyranosyl]tyrosyl-3-(2-iminoimidazolidin-4-yl)seryl-3-(3-hexopyranosyl-2-iminoimidazolidin-4-yl)serylseryl]]
0.07 mg/kg: median effective dose (ED50), Staphylococcus aureus-SMITH (GC 4543) [1]
1 µg/mL: MIC Staphylococcus aureus (ATCC 29213) (Staphylococcus sp.) | MIC Staphylococcus aureus (GC 1131) (Staphylococcus sp.) | MIC Staphylococcus aureus (GC 3051) (Staphylococcus sp.) | MIC Staphylococcus aureus (GC 3053) (Staphylococcus sp.) | MIC Staphylococcus aureus (GC 4541) (Staphylococcus sp.) | MIC Staphylococcus aureus (GC 4542) (Staphylococcus sp.) | MIC Staphylococcus aureus (GC 4545) (Staphylococcus sp.) | MIC Staphylococcus aureus (GC 1131) (Staphylococcus sp.; inoculum 5×10^5 CFU/mL, strain GC 1131) | MIC Staphylococcus aureus (ATCC 29213) (Staphylococcus sp.; strain ATCC 29213) | MIC Staphylococcus aureus (GC 3051) (Staphylococcus sp.; strain GC 3051) | MIC Staphylococcus aureus (GC 3053) (Staphylococcus sp.; strain GC 3053) | MIC Staphylococcus aureus (GC 4541) (Staphylococcus sp.; strain GC 4541) | MIC Staphylococcus aureus (GC 4542) (Staphylococcus sp.; strain GC 4542) | MIC Staphylococcus aureus-SMITH (GC 4543) (Staphylococcus sp.; strain GC 4543) | MIC Staphylococcus aureus (GC 4545) (Staphylococcus sp.; strain GC 4545) | MIC Coagulase Negative Staphylococcus (GC 4547) (Staphylococcus sp.; strain GC 4547) | MIC Coagulase Negative Staphylococcus (GC 4551) (Staphylococcus sp.; strain GC 4551) | MIC Staphylococcus aureus-SMITH (GC 4543) (Staphylococcus sp.; strain SMITH GC 4543)
0.5 µg/mL: MIC Escherichia coli (GC 4560) (Escherichia coli; strain GC 4560) | MIC Staphylococcus haemolyticus (GC 4546) (Staphylococcus sp.; strain GC 4546) | MIC Coagulase Negative Staphylococcus (GC 4548) (Staphylococcus sp.; strain GC 4548) | MIC Coagulase Negative Staphylococcus (GC 4549) (Staphylococcus sp.; strain GC 4549) | MIC Coagulase Negative Staphylococcus (GC 6257) (Staphylococcus sp.; strain GC 6257)
0.26 mg/kg: median effective dose (ED50), Enterococcus faecalis (GC 6189) [2]
<0.06 µg/mL: MIC Streptococcus pneumoniae (ATCC 6301) (Streptococcus sp.; Streptococcus pneumoniae (ATCC 6301)) | MIC Streptococcus pneumoniae (GC 1894) (Streptococcus sp.; Streptococcus pneumoniae (GC 1894)) | MIC Streptococcus pneumoniae (GC 4565) (Streptococcus sp.; Streptococcus pneumoniae (GC 4565)) | MIC Streptococcus pneumoniae (ATCC 6301) (Streptococcus sp.; strain ATCC 6301) | MIC Streptococcus pneumoniae (GC 1894) (Streptococcus sp.; strain GC 1894) | MIC Streptococcus pneumoniae (GC 4565) (Streptococcus sp.; strain GC 4565)
32 µg/mL: MIC Escherichia coli (ATCC 25922) (Escherichia coli; strain ATCC 25922) | MIC Escherichia coli (GC 4559) (Escherichia coli; strain GC 4559)
0.25 µg/mL: MIC Streptococcus agalactiae (GC 4564) (Streptococcus sp.; Streptococcus agalactiae (GC 4564)) | MIC Streptococcus pyogenes (GC 4563) (Streptococcus sp.; Streptococcus pyogenes (GC 4563)) | MIC Streptococcus pyogenes (GC 4563) (Streptococcus sp.; strain GC 4563) | MIC Streptococcus agalactiae (GC 4564) (Streptococcus sp.; strain GC 4564)
2 µg/mL: MIC Enterococcus avium (GC 4558) (Enterococcus sp.; Enterococcus avium (GC 4558)) | MIC Enterococcus faecalis (ATCC 29212) (Enterococcus sp.; Enterococcus faecalis (ATCC 29212)) | MIC Enterococcus faecalis (GC 2242) (Enterococcus sp.; Enterococcus faecalis (GC 2242)) | MIC Enterococcus faecalis (GC 2691) (Enterococcus sp.; Enterococcus faecalis (GC 2691)) | MIC Enterococcus faecalis (GC 3059) (Enterococcus sp.; Enterococcus faecalis (GC 3059)) | MIC Enterococcus faecalis (GC 4552) (Enterococcus sp.; Enterococcus faecalis (GC 4552)) | MIC Enterococcus faecalis (GC 4553) (Enterococcus sp.; Enterococcus faecalis (GC 4553)) | MIC Enterococcus faecalis (GC 4554) (Enterococcus sp.; Enterococcus faecalis (GC 4554)) | MIC Enterococcus faecalis (GC 6189) (Enterococcus sp.; Enterococcus faecalis (GC 6189)) | MIC Enterococcus faecium (GC 2243) (Enterococcus sp.; Enterococcus faecium (GC 2243)) | MIC Enterococcus faecium (GC 4556) (Enterococcus sp.; Enterococcus faecium (GC 4556)) | MIC Enterococcus faecium (GC 4557) (Enterococcus sp.; Enterococcus faecium (GC 4557)) | MIC Enterococcus faecalis (ATCC 29212) (Enterococcus sp.; strain ATCC 29212) | MIC Enterococcus faecalis (GC 2242) (Enterococcus sp.; strain GC 2242) | MIC Enterococcus faecium (GC 2243) (Enterococcus sp.; strain GC 2243) | MIC Enterococcus faecalis (GC 2691) (Enterococcus sp.; strain GC 2691) | MIC Enterococcus faecalis (GC 3059) (Enterococcus sp.; strain GC 3059) | MIC Enterococcus faecalis (GC 4552) (Enterococcus sp.; strain GC 4552) | MIC Enterococcus faecalis (GC 4553) (Enterococcus sp.; strain GC 4553) | MIC Enterococcus faecalis (GC 4554) (Enterococcus sp.; strain GC 4554) | MIC Enterococcus faecium (GC 4556) (Enterococcus sp.; strain GC 4556) | MIC Enterococcus faecium (GC 4557) (Enterococcus sp.; strain GC 4557) | MIC Enterococcus avium (GC 4558) (Enterococcus sp.; strain GC 4558) | MIC Enterococcus faecalis (GC 6189) (Enterococcus sp.; strain GC 6189) | MIC Staphylococcus aureus (GC 4544) (Staphylococcus sp.) | MIC Staphylococcus aureus (GC 4544) (Staphylococcus sp.; strain GC 4544)

CC(C)CCC(=O)OC1C(CO)OC(OC2C(CO)OC(Oc3ccc(CC4NC(=O)C(C(C)c5ccccc5)NC(=O)CNC(=O)C(CO)NC(=O)C(C(O)C5CNC(=N)N5C5OC(CO)C(O)C(O)C5O)NC(=O)C(C(O)C5CNC(=N)N5)NC4=O)cc3)C(O)C2O)C(O)C1O (stereo not drawn) [Example 270c, Cyclo[glycyl-β-methylphenylalanyl-O-[4-O-[4-O-(4-methylpentanoyl)hexopyranosyl]-hexopyranosyl]tyrosyl-3-(2-iminoimidazolidin-4-yl)seryl-3-(3-hexopyranosyl-2-iminoimidazolidin-4-yl)serylseryl]]
11 mm: Zone of Inhibition vs. S. aureus (Staphylococcus aureus)

CCC(C)CC(=O)OC1C(CO)OC(OC2C(CO)OC(Oc3ccc(CC4NC(=O)C(C(C)c5ccccc5)NC(=O)CNC(=O)C(CO)NC(=O)C(C(O)C5CNC(=N)N5C5OC(CO)C(O)C(O)C5O)NC(=O)C(C(O)C5CNC(=N)N5)NC4=O)cc3)C(O)C2O)C(O)C1O (stereo not drawn) [Example 271c, Cyclo[glycyl-β-methylphenylalanyl-O-[4-O-[4-O-(3-methylpentanoyl)hexopyranosyl]-hexopyranosyl]tyrosyl-3-(2-iminoimidazolidin-4 yl)seryl-3-(3-hexopyranosyl-2-iminoimidazolidin-4-yl)serylseryl]]
12 mm: Zone of Inhibition vs. S. aureus (Staphylococcus aureus)

CCCC(=O)OC1C(O)C(CO)OC(OC2C(CO)OC(Oc3ccc(CC4NC(=O)C(C(C)c5ccccc5)NC(=O)CNC(=O)C(CO)NC(=O)C(C(O)C5CNC(=N)N5C5OC(CO)C(O)C(O)C5O)NC(=O)C(C(O)C5CNC(=N)N5)NC4=O)cc3)C(O)C2O)C1O (stereo not drawn) [Example 272b, Cyclo[glycyl-β-methylphenylalanyl-O-[4-O-(3-O-butanoyl-hexopyranosyl)-hexopyranosyl]tyrosyl-3-(2-iminoimidazolidin-4-yl)seryl-3-(3-hexopyranosyl-2-iminoimidazolidin-4-yl)serylseryl]]
8 mm: Zone of Inhibition vs. S. aureus (Staphylococcus aureus)

CCCCCC(=O)OC1C(O)C(CO)OC(OC2C(CO)OC(Oc3ccc(CC4NC(=O)C(C(C)c5ccccc5)NC(=O)CNC(=O)C(CO)NC(=O)C(C(O)C5CNC(=N)N5C5OC(CO)C(O)C(O)C5O)NC(=O)C(C(O)C5CNC(=N)N5)NC4=O)cc3)C(O)C2O)C1O (stereo not drawn) [Example 273b, Cyclo[glycyl-β-methylphenylalanyl-O-[4-O-(3-O-hexanoyl-hexopyranosyl)-hexopyranosyl]tyrosyl-3-(2-iminoimidazolidin-4-yl)seryl-3-(3-hexopyranosyl-2-iminoimidazolidin-4-yl)serylseryl]]
9 mm and 8 mm: Zone of Inhibition vs. S. aureus (Staphylococcus aureus)
